Bounds are passed on as bounds.

In the assay the target is T1, KRasG12C (Homo sapiens, UniProt P01116, G12C).
T1 construct: biotin (biotinylated); made in house
T1 sequence (P01116 1-188 isoform P01116-2 G12C): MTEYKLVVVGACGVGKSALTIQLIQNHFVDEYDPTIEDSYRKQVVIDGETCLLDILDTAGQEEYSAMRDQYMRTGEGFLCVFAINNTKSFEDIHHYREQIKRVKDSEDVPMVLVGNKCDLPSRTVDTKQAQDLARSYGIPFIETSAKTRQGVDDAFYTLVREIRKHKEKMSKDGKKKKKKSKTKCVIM
Kind of assay: KRasG12C functional assay (HTRF nucleotide exchange / Raf RBD binding). The following applies: GDP loaded biotinylated KRasG12C, samples incubated 4 hrs, FRET readout; single experiment or average of two or more. It counts as biochemical. The method, then: KRasG12C Functional Assay
All enzyme and substrate solutions were prepared in assay buffer containing 20 mM HEPES (pH 7.5), 5 mM MgCl2, 150 mM NaCl, and 0.01% Tween 20. […] In a separate mix 20 nM GST-Raf Ras binding domain (GST-Raf RBD, purified in house) and 4 μg/ml anti-GST XL665 antibody (Cisbio) was prepared in assay buffer containing 50 mM Potassium Fluoride and 0.05 mg/ml BSA and equilibrated for 4 hours before adding 0.6 μM Guanosine 5′-[γ-thio]triphosphate (GTPγS, Sigma) and 0.08 μM SOS (purified in house). 5 μl of the GST-RAF RBD mix was then dispensed into each well of the assay plate. […] This is detected simultaneously via the specific binding interaction between active GTPγS KRas^G12C with GST-Raf RBD which brings the europium and XL665 into close proximity enabling an increased FRET signal to be detected on a Pherastar (BMG) plate reader equipped with the HTRF filter module. […] IC50 values were calculated from normalised dose-response response FRET data curve fitted in Genedata screener (Basel, Switzerland).
As for `C=CC(=O)N1CCN2c3c(cnc4c(F)c(-c5c(C)ccc6[nH]c(=O)oc56)c(Cl)cc34)OC[C@H]2C1` (single isomer, unassigned) [Compound 48], the half-inhibitory concentration (IC50) was 3600 nM.

`C=CC(=O)N1CCN2c3c(cnc4c(F)c(-c5c(C)ccc6[nH]ncc56)c(Cl)cc34)N(C)C(=O)[C@H]2C1` (single isomer, unassigned) [Compound 50] showed an IC50 of 9600 nM.

Take `C=CC(=O)N1CCN2c3c(cnc4c(F)c(-c5c(O)cccc5Cl)c(Cl)cc34)N(C)C(=O)[C@H]2C1` (single isomer, unassigned) [Compound 51]: the IC50 is over 100000 nM.

The compound `C=CC(=O)N1CCN2c3c(cnc4c(F)c(-c5c(O)cccc5Cl)c(Cl)cc34)N(C)C(=O)[C@H]2C1` (single isomer, unassigned) [Compound 52] returned a half-inhibitory concentration (IC50) of 14 nM.

`C=CC(=O)N1CCN2c3c(cnc4c(F)c(-c5c(C)cccc5O)c(Cl)cc34)N(C)C(=O)[C@H]2C1` (single isomer, unassigned) [Compound 53] came in with an IC50 of 37600 nM.

As for `C=CC(=O)N1CCN2c3c(cnc4c(F)c(-c5c(C)cccc5O)c(Cl)cc34)N(C)C(=O)[C@H]2C1` (single isomer, unassigned) [Compound 54], the IC50 came to 40 nM.

In turn, `C=CC(=O)N1CCN2c3c(cnc4c(F)c(-c5c(O)ccc6ccccc56)c(Cl)cc34)N(C)C(=O)[C@H]2C1` (single isomer, unassigned) [Compound 55] registered an IC50 of 5900 nM.

`C=CC(=O)N1CCN2c3c(cnc4c(F)c(-c5c(O)ccc6ccccc56)c(Cl)cc34)N(C)C(=O)[C@H]2C1` (single isomer, unassigned) [Compound 56]: the IC50 amounted to 56 nM.

In turn, `C=CC(=O)N1CCN2c3c(cnc4c(F)c(-c5c(O)ccc(F)c5F)c(Cl)cc34)N(C)C(=O)[C@H]2C1` (single isomer, unassigned) [Compound 57] returned an IC50 of 8900 nM.

As to `C=CC(=O)N1CCN2c3c(cnc4c(F)c(-c5c(O)ccc(F)c5F)c(Cl)cc34)N(C)C(=O)[C@H]2C1` (single isomer, unassigned) [Compound 58], the IC50 amounted to 20 nM.

In turn, `C=CC(=O)N1CCN2c3c(cnc4c(F)c(-c5c(O)cccc5C(F)F)c(Cl)cc34)N(C)C(=O)[C@H]2C1` (single isomer, unassigned) [Compound 61] yielded an IC50 of 38700 nM.

For `C=CC(=O)N1CCN2c3c(cnc4c(F)c(-c5c(O)cccc5C(F)F)c(Cl)cc34)N(C)C(=O)[C@H]2C1` (single isomer, unassigned) [Compound 62], the IC50 turned out to be 37 nM.

In the case of `C=CC(=O)N1C[C@@H]2COc3cnc4c(F)c(-c5c(O)cccc5F)c(F)cc4c3N2C[C@H]1C` (single isomer, unassigned) [Compound 63], the IC50 was determined as 1900 nM.

Compound `C=CC(=O)N1C[C@@H]2COc3cnc4c(F)c(-c5c(O)cccc5F)c(F)cc4c3N2C[C@H]1C` (single isomer, unassigned) [Compound 64] showed an IC50 of 20 nM.

Compound `C=CC(=O)N1CCN2c3c(cnc4cc(-c5c(C)ccc6[nH]c(=O)[nH]c56)c(Cl)cc34)OC[C@H]2C1` (single isomer, unassigned) [Compound 72] returned an IC50 of 8300 nM.

With `C=CC(=O)N1CCN2c3c(cnc4cc(-c5c(C)ccc6[nH]ncc56)c(Cl)cc34)N(CCN(C)C)C[C@H]2C1` (single isomer, unassigned) [Compound 73], the IC50 turned out to be 57 nM.

On to `C=CC(=O)N1CCN2c3c(cnc4cc(-c5c(C)ccc6[nH]ncc56)c(Cl)cc34)N(CCN(C)C)C[C@H]2C1` (single isomer, unassigned) [Compound 74], for which the IC50 was 13100 nM.

As to `C#Cc1cc2c3c(cnc2cc1-c1c(C)ccc2[nH]ncc12)OC[C@H]1CN(C(=O)C=C)CCN31` (single isomer, unassigned) [Compound 76], the IC50 was found to be 931 nM.

`C=CC(=O)N1CCN2c3c(cnc4c(F)c(-c5c(C)ccc6[nH]cnc56)c(Cl)cc34)OC[C@H]2C1` (single isomer, unassigned) [Compound 78] gave a 50% inhibitory concentration (IC50) of 7140 nM.

Compound `C=CC(=O)N1CCN2c3c(cnc4c(Cl)c(-c5c(O)cccc5F)c(F)cc34)N(C)C(=O)[C@H]2C1` (single isomer, unassigned) [Compound 79] yielded an IC50 of 141 nM.

`C=CC(=O)N1CCN2c3c(cnc4c(Cl)c(-c5c(O)cccc5F)c(F)cc34)N(C)C(=O)[C@H]2C1` (single isomer, unassigned) [Compound 80] showed an IC50 of 14700 nM.

Take `C=CC(=O)N1CCN2c3c(cnc4c(F)c(-c5c(C)ccc6[nH]c(=O)n(C)c56)c(Cl)cc34)OC[C@H]2C1` (single isomer, unassigned) [Compound 84]: the IC50 was 2400 nM.

Take `C=CC(=O)N1CCN2c3c(cnc4c(F)c(-c5c(C)ccc6[nH]c(=O)n(C)c56)c(Cl)cc34)OC[C@H]2C1` (single isomer, unassigned) [Compound 85]: the IC50 was determined as 10 nM.

The compound `C=CC(=O)N1CCN2c3c(cnc4c(F)c(-c5c(C)ccc6c5C(=O)NC6)c(Cl)cc34)OC[C@H]2C1` (single isomer, unassigned) [Compound 87] had an IC50 of 8600 nM.

The compound `C=CC(=O)N1CCN2c3c(cnc4c(F)c(-c5c(O)cccc5F)c(Cl)cc34)NC(=O)[C@H]2C1` (single isomer, unassigned) [Compound 89] registered a concentration for half-maximal inhibition (IC50) of 3600 nM.

`C=CC(=O)N1CCN2c3c(cnc4c(C)c(-c5c(O)cccc5F)c(C)nc34)N(C)C(=O)[C@H]2C1` (single isomer, unassigned) [Compound 91] displayed an IC50 of 35200 nM.

Compound `C=CC(=O)N1CCN2c3c(cnc4cc(-c5c(C)ccc6[nH]ncc56)c(Cl)cc34)OC[C@H]2C1` (single isomer, unassigned) [Example 4] came in with an IC50 of 1700 nM.

Regarding `C=CC(=O)N1CCN2c3c(cnc4cc(-c5c(C)ccc6[nH]ncc56)c(Cl)cc34)OC[C@@H]2C1` (single isomer, unassigned) [Example 5], the IC50 was 5800 nM.

In turn, `C=CC(=O)N1CCN2c3c(cnc4cc(-c5c(C)ccc6[nH]ncc56)c(Cl)cc34)OC[C@@H]2C1` (single isomer, unassigned) [Example 6] returned an IC50 of 662 nM.

Regarding `C=CC(=O)N1CCN2c3c(cnc4c(F)c(-c5c(O)cccc5F)c(Cl)cc34)OC[C@H]2C1` (single isomer, unassigned) [Example 8], the half-maximal inhibitory concentration (IC50) stood at 8500 nM.

Regarding `C=CC(=O)N1CCN2c3c(cnc4cc(-c5c(O)cccc5F)c(Cl)cc34)OC[C@H]2C1` (single isomer, unassigned) [Mixture of 1 & 2], the IC50 came to 211 nM.

In turn, `C=CC(=O)N1CCN2c3c(cnc4c(F)c(-c5c(O)cccc5F)c(F)cc34)N(C)C(=O)[C@H]2C1` [Compound 42, (4aR)-3-Acryloyl-9,11-difluoro-10-(2-fluoro-6-hydroxyphenyl)-6-methyl-2,3,4,4a-tetrahydro-1H-pyrazino[1′,2′:4,5]pyrazino[2,3-c]quinolin-5(6H)-one] came in with an IC50 of 77 nM.

With `C=CC(=O)N1CCN2c3c(cnc4cc(-c5c(O)cccc5F)c(Cl)c(F)c34)N(C)C(=O)[C@H]2C1` [Compound 59, (4aR)-11-Chloro-12-fluoro-10-(2-fluoro-6-hydroxyphenyl)-6-methyl-3-(prop-2-enoyl)-2,3,4,4a-tetrahydro-1H-pyrazino[1′,2′:4,5]pyrazino[2,3-c]quinolin-5(6H)-one], the IC50 is 202 nM.

The record behind these values is patent US10597405B2, “Chemical compounds” (ASTRAZENECA AB, priority 2017, dated 2020).
